In patent US3997403A, “Antibiotic G-418 and the production thereof” (Schering Corporation, priority 1975, dated 1976):
In brackets after ≈: the same amount, converted by molar mass.

Assays:
Type in all cases: cell-based
[1] = tested on: Bacillus subtilis A.T.C.C. 6633; assay: standard disc plate microbiological assay; settings: one microgram of the standard; Difco Antibiotic Medium No. 5
Description: The assay is a standard disc plate assay using Difco Antibiotic Medium No. 5 and Bacillus subtilis A.T.C.C. 6633 as the test organism. The physical conditions of the test are substantially those described for neomycin (Grove and Randall), Assay Methods of Antibiotics published by Medical Encyclopedia Incorporated (1955). The assay is run against a standard preparation of Antibiotic G-418 having a defined potency of 1000 mcg/mg. […] The standard antibiotic sulfate salt assays about 750 mcg/mg. against the standard antibiotic base.

Streptococcus sp. 16245 = assay: In Vitro Antibacterial Activity (Table V); settings: Mueller-Hinton Broth pH 7.2 - 7.5
Description: (§1) In Table IV and Table V are set forth the in vitro antibacterial spectrum of Antibiotic G-418 against a variety of gram-positive and gram-negative bacteria using standard art recognized methods.
(§2) *Mueller -- Hinton Broth pH 7.2 - 7.5

[2] = tested on: Pseudomonas aeruginosa 1236; assay: In Vitro Antibacterial Activity (Table V); settings: P. aeruginosa 1236, Mueller-Hinton Broth pH 7.2 - 7.5
Description: as §1, §2

Escherichia coli 887 = assay: In Vitro Antibacterial Activity (Table V); settings: E. coli 887, Mueller-Hinton Broth pH 7.2 - 7.5
Description: as §1, §2

Proteus rettgeri 9250 = assay: In Vitro Antibacterial Activity (Table V); settings: Providencia rettgeri, Mueller-Hinton Broth pH 7.2 - 7.5
Description: as §1, §2

Escherichia coli 777 = assay: In Vitro Antibacterial Activity (Table V); settings: E. coli 777, Mueller-Hinton Broth pH 7.2 - 7.5
Description: as §1, §2

Proteus morganii 8019 = assay: In Vitro Antibacterial Activity (Table V); settings: Morganella morganii, Mueller-Hinton Broth pH 7.2 - 7.5
Description: as §1, §2

[3] = tested on: Pseudomonas aeruginosa 20; assay: In Vitro Antibacterial Activity (Table V); settings: P. aeruginosa 20, Mueller-Hinton Broth pH 7.2 - 7.5
Description: as §1, §2

[4] = tested on: Staphylococcus aureus 1257; assay: In Vitro Antibacterial Activity (Table V); settings: S. aureus 1257, Mueller-Hinton Broth pH 7.2 - 7.5
Description: as §1, §2

[5] = tested on: Pseudomonas aeruginosa 1262; assay: In Vitro Antibacterial Activity (Table V); settings: P. aeruginosa 1262, Mueller-Hinton Broth pH 7.2 - 7.5
Description: as §1, §2

Streptococcus sp. 6589 = assay: In Vitro Antibacterial Activity (Table V); settings: Mueller-Hinton Broth pH 7.2 - 7.5
Description: as §1, §2

[6] = tested on: Pseudomonas aeruginosa 83; assay: In Vitro Antibacterial Activity (Table V); settings: P. aeruginosa 83, Mueller-Hinton Broth pH 7.2 - 7.5
Description: as §1, §2

Streptococcus sp. 27 = assay: In Vitro Antibacterial Activity (Table V); settings: Mueller-Hinton Broth pH 7.2 - 7.5
Description: as §1, §2

Proteus mirabilis 12453 = assay: In Vitro Antibacterial Activity (Table V); settings: Mueller-Hinton Broth pH 7.2 - 7.5
Description: as §1, §2

[7] = tested on: Staphylococcus aureus Sm 1; assay: In Vitro Antibacterial Activity (Table V); settings: SM1, S. aureus Sm 1, Mueller-Hinton Broth pH 7.2 - 7.5
Description: as §1, §2

Staphylococcus aureus 26 = assay: In Vitro Antibacterial Activity (Table V); settings: S. aureus 26, Mueller-Hinton Broth pH 7.2 - 7.5
Description: as §1, §2

Staphylococcus aureus 32 = assay: In Vitro Antibacterial Activity (Table V); settings: S. aureus 32, Mueller-Hinton Broth pH 7.2 - 7.5
Description: as §1, §2

Streptococcus sp. 3045 = assay: In Vitro Antibacterial Activity (Table V); settings: Mueller-Hinton Broth pH 7.2 - 7.5
Description: as §1, §2

Bacillus subtilis 6633 = assay: In Vitro Antibacterial Activity (Table V); settings: B. subtilis 6633, Mueller-Hinton Broth pH 7.2 - 7.5
Description: as §1, §2

Staphylococcus aureus 6 = assay: In Vitro Antibacterial Activity (Table V); settings: S. aureus 6, Mueller-Hinton Broth pH 7.2 - 7.5
Description: as §1, §2

Streptococcus sp. 30 = assay: In Vitro Antibacterial Activity (Table V); settings: Mueller-Hinton Broth pH 7.2 - 7.5
Description: as §1, §2

Staphylococcus aureus 12 = assay: In Vitro Antibacterial Activity (Table V); settings: S. aureus 12, Mueller-Hinton Broth pH 7.2 - 7.5
Description: as §1, §2

Staphylococcus aureus 23 = assay: In Vitro Antibacterial Activity (Table V); settings: S. aureus 23, Mueller-Hinton Broth pH 7.2 - 7.5
Description: as §1, §2

[8] = tested on: Staphylococcus aureus Gray; assay: In Vitro Antibacterial Activity (Table IV); settings: S. aureus Gray, Tryptose Phosphate Broth pH 7.2 - 7.5, read-out: MIC (Minimum Inhibitory Concentration)
Description: as §1
(§3) *Minimum Inhibitory Concentration -- Medium: Tryptose Phosphate Broth pH

[9] = tested on: Staphylococcus aureus Ziegler; assay: In Vitro Antibacterial Activity (Table IV); settings: S. aureus Ziegler, Tryptose Phosphate Broth pH 7.2 - 7.5, read-out: MIC (Minimum Inhibitory Concentration)
Description: as §1, §3

Escherichia coli Sc = assay: In Vitro Antibacterial Activity (Table IV); settings: E. coli Sc, Tryptose Phosphate Broth pH 7.2 - 7.5, read-out: MIC (Minimum Inhibitory Concentration)
Description: as §1, §3

[10] = tested on: Pseudomonas aeruginosa VA6; assay: In Vitro Antibacterial Activity (Table IV); settings: P. aeruginosa VA6, Tryptose Phosphate Broth pH 7.2 - 7.5, read-out: MIC (Minimum Inhibitory Concentration)
Description: as §1, §3

[11] = tested on: Klebsiella pneumoniae DA20; assay: In Vitro Antibacterial Activity (Table IV); settings: K. pneumoniae DA20, Tryptose Phosphate Broth pH 7.2 - 7.5, read-out: MIC (Minimum Inhibitory Concentration)
Description: as §1, §3

Streptococcus sp. C203 = assay: In Vitro Antibacterial Activity (Table IV); settings: Tryptose Phosphate Broth pH 7.2 - 7.5, read-out: MIC (Minimum Inhibitory Concentration)
Description: as §1, §3

Work on CN[C@@H]1[C@@H](O)[C@@H](O[C@@H]2[C@@H](O)[C@H](O[C@H]3O[C@H]([C@@H](C)O)[C@@H](O)[C@H](O)[C@H]3N)[C@@H](N)C[C@H]2N)OC[C@]1(C)O [Antibiotic G-418] yielded a zone of inhibition [1] of 16.5 ± 1.5 mm, an MIC (Streptococcus sp. 16245) of 7.5 µg/mL (≈ 15.1 µM) and an MIC [2] of 17.5 µg/mL (≈ 35.2 µM). For the same compound, the MIC (Escherichia coli 887) was 3 µg/mL (≈ 6.04 µM), the MIC (Proteus rettgeri 9250) was 0.3 µg/mL (≈ 0.604 µM) and the MIC (Escherichia coli 777) was 3 µg/mL (≈ 6.04 µM). It also gave an MIC (Proteus morganii 8019) of 0.8 µg/mL (≈ 1.61 µM), an MIC [3] of 3 µg/mL (≈ 6.04 µM) and an MIC [4] of 0.3 µg/mL (≈ 0.604 µM). It also gave an MIC [5] of 17.5 µg/mL (≈ 35.2 µM), an MIC (Streptococcus sp. 6589) of 7.5 µg/mL (≈ 15.1 µM) and an MIC [6] of 7.5 µg/mL (≈ 15.1 µM). It also gave an MIC (Streptococcus sp. 27) of 7.5 µg/mL (≈ 15.1 µM), an MIC (Proteus mirabilis 12453) of 7.5 µg/mL (≈ 15.1 µM) and an MIC [7] of 0.3 µg/mL (≈ 0.604 µM). The MIC (Staphylococcus aureus 26) was 3 µg/mL (≈ 6.04 µM), the MIC (Staphylococcus aureus 32) was 7.5 µg/mL (≈ 15.1 µM) and the MIC (Streptococcus sp. 3045) was 7.5 µg/mL (≈ 15.1 µM). The MIC (Bacillus subtilis 6633) was 3 µg/mL (≈ 6.04 µM), the MIC (Staphylococcus aureus 6) was 0.3 µg/mL (≈ 0.604 µM) and the MIC (Streptococcus sp. 30) was 7.5 µg/mL (≈ 15.1 µM). It also gave an MIC (Staphylococcus aureus 12) of 3 µg/mL (≈ 6.04 µM), an MIC (Staphylococcus aureus 23) of 0.3 µg/mL (≈ 0.604 µM) and an MIC [8] of 7.5 µg/mL (≈ 15.1 µM). For the same compound, the MIC [9] was 0.8 µg/mL (≈ 1.61 µM), the MIC (Escherichia coli Sc) was 3 µg/mL (≈ 6.04 µM) and the MIC [10] was 3 µg/mL (≈ 6.04 µM). For the same compound, the MIC [11] was 3 µg/mL (≈ 6.04 µM) and the MIC (Streptococcus sp. C203) was 17.5 µg/mL (≈ 35.2 µM).
